Measured values published in ChEMBL document CHEMBL3779875, “Cytotoxic Evaluation against Breast Cancer Cells of Isoliquiritigenin Analogues from Spatholobus suberectus and Their Synthetic Derivatives” (J Nat Prod, 2016).
The source made the active and inactive calls. The calls are words filed in the database; no cut-off is given here.

Columns and labels:
MCF7 = test: Cytotoxicity against human MCF7 cells assessed as reduction in cell viability after 72 hrs by MTT assay; assay type: functional, cell-based; conditions: for IC50: MCF7, 72 h
MDA-MB-231 = test: Cytotoxicity against human MDA-MB-231 cells assessed as reduction in cell viability after 72 hrs by MTT assay; assay type: functional, cell-based; conditions: for IC50: MDA-MB-231, 72 h

Row | SMILES | IC50 (MCF7) [µM] | IC50 (MDA-MB-231) [µM] | Activity (MCF7) | Activity (MDA-MB-231)
1 | COc1ccc(C(=O)/C=C/c2ccc(O)c(OC)c2)c(OC)c1 | 3.1 | > 10 | – | –
2 | COc1ccc(/C=C/C(=O)c2ccc(OC)cc2OC)cc1 [METOCHALCONE] | 1.5 | 7.9 | – | –
3 | O=C(/C=C/c1ccc(O)cc1)c1ccc(O)cc1O [ISOLIQUIRITIGENIN] | > 10 | > 10 | – | –
4 | O=C(CCc1ccc(O)cc1)c1c(O)cc(O)cc1O [PHLORETIN] | > 10 | > 10 | – | –
5 | O=C(/C=C/c1ccc(O)cc1)c1c(O)cc(O)cc1O [4,2',4',6'-TETRAHYDROXYCHALCONE] | > 10 | > 10 | – | –
6 | COc1ccc2c(c1)OC(c1ccccc1)CC2=O (stereo not given) | – | – | inactive | inactive
7 | O=C(/C=C/c1ccccc1)c1ccc(O)cc1O [2',4'-DIHYDROXYCHALCONE] | > 10 | > 10 | – | –
8 | CC(=O)O[C@H]1C(=O)[C@@]2(C)[C@H]([C@H](OC(=O)c3ccccc3)[C@]3(O)C[C@H](OC(=O)[C@H](O)[C@@H](NC(=O)c4ccccc4)c4ccccc4)C(C)=C1C3(C)C)[C@]1(OC(C)=O)CO[C@@H]1C[C@@H]2O [PACLITAXEL] | – | 0.0039 | – | –
9 | COc1cc(/C=C/C(=O)c2ccc(OC)c(OC)c2OC)cc(OC)c1OC | > 10 | 7.4 | – | –
10 | O=C(/C=C/c1ccc(O)cc1)c1ccc(O)c(O)c1O | > 10 | > 10 | – | –
11 | O=C1CC(c2ccc(O)cc2)Oc2cc(O)cc(O)c21 (stereo not given) | – | – | inactive | inactive
12 | O=C(/C=C/c1ccc(O)cc1)c1cc(Cc2c(O)ccc(C(=O)/C=C/c3ccc(O)cc3)c2O)c(O)cc1O | > 10 | > 10 | – | –
13 | O=C(/C=C/c1ccc(O)cc1)c1ccc(O)cc1 [4,4'-DIHYDROXYCHALCONE] | > 10 | > 10 | – | –
14 | COc1ccc(C(=O)CCc2ccccc2)c(O)c1 | > 10 | > 10 | – | –
15 | O=C(/C=C/c1ccc(O)cc1)c1cc(O)ccc1O | > 10 | > 10 | – | –
16 | COc1cc(C(=O)/C=C/c2ccc(Cl)c(Cl)c2)cc(OC)c1OC | 7 | > 10 | – | –
17 | O=C(CCc1ccc(O)cc1)c1ccc(O)cc1O [DAVIDIGENIN] | > 10 | > 10 | – | –
18 | COc1ccc(/C=C/C(=O)c2cc(OC)c(OC)c(OC)c2)cc1 | 0.71 | 6.5 | – | –
